From ChEMBL document CHEMBL1154786, “Analgesic, anticonvulsant and anti-inflammatory activities of some synthesized benzodiazipine, triazolopyrimidine and bis-imide derivatives” (Eur J Med Chem, 2009) come the findings set out here.

The source made the active and inactive calls. The rule behind the calls is not given here.

Data set [1] is described as follows: Acute toxicity in rat. It counts as organism-based. The settings on record: in vivo.
The test system of data set [2] is Rattus norvegicus. The experiment in a line: Antiinflammatory activity in albino rat assessed as protection against carrageenan-induced paw edema at 50 mg/kg, po administered 1 hr before carrageenan challenge measured after 4 hrs. It counts as functional.
Data set [3] concerns Mus musculus. Description: Anticonvulsant activity in Webster mouse assessed as protection against yohimbine-HCl-induced clonic seizure at 5 mg/kg, ip administered 30 mins before yohimbine-HCl challenge. Type of data set: functional.
The subject of data set [4] is Mus musculus. Description: Anticonvulsant activity in Webster mouse assessed as protection against yohimbine-HCl-induced clonic seizure at 5 mg/kg, ip administered 30 mins before yohimbine-HCl challenge relative to carbamazepine. Type of data set: functional.
Data set [5] relates to Rattus norvegicus. Description: Antiinflammatory activity in albino rat assessed as inhibition of increase in plasma PGE2 level at 50 mg/kg, po by EIA. It counts as functional.
In data set [6] the test system is Rattus norvegicus. Description: Antiinflammatory activity in albino rat assessed as protection against carrageenan-induced paw edema at 25 mg/kg, po administered 1 hr before carrageenan challenge measured after 4 hrs. It counts as functional.
Data set [7] concerns Mus musculus. The experiment in a line: Analgesic activity in Webster mouse assessed as normal reaction time at 5 mg/kg, sc after 10-120 mins by hot plate assay relative to valdecoxib. It counts as functional. The settings on record: route subcutaneous. (In hot-plate and tail-flick tests a longer latency is read as antinociception.)
The test system of data set [8] is Rattus norvegicus. The experiment in a line: Antiinflammatory activity in albino rat assessed as inhibition of increase in plasma PGE2 level at 25 mg/kg, po by EIA. Type of data set: functional.

What is called LD50 is the dose at which mortality reaches 50%. On to `CC1=CC(c2ccccc2)Nc2nnc(C)n21` (stereo not given), for which the LD50 in data set [1] turned out to be 1.97 mg/kg.
Same read-out and setting: to `CC1=Cc2c(c(C)nn2-c2ccccc2)C(c2ccccc2)C1` (stereo not given) belongs 1.92 mg/kg.
Broadly, the ED50 is the dose at which the effect has come halfway, by size or by number of responders. In general, inhibition in vivo refers to the share of the control response that was lost under treatment. With `CC1=CC(c2ccccc2)Nc2n[nH]c(=S)n21` (stereo not given), the Activity in data set [2] worked out at 42.38%. In data set [3], the ED50 result was “inactive”. Moreover, the result in data set [4] was inactive. Besides, the inhibition in vivo at 50 mg/kg in data set [5] came out at 66.8%. Moreover, the 50% lethal dose (LD50) in data set [1] was determined as 1.8 mg/kg.
For `CC1=CC(c2ccccc2)N=C(NN2C(=O)c3cccc4cccc(c34)C2=O)N1` (stereo not given), the figures for the Activity in data set [2], in data set [6] and in data set [7] were 93.15%, 87.8% and 60%, respectively. In addition, the ED50 entry in data set [3] was “inactive”. Also, the result in data set [4] was inactive. Further, in data set [8], the inhibition in vivo at 25 mg/kg stood at 88.7%. Moreover, the inhibition in vivo at 50 mg/kg in data set [5] was determined as 95.6%. This molecule came in with an LD50 in data set [1] of 1.85 mg/kg.
For the molecule `CC1=CC(c2ccccc2)Nc2ncnn21` (stereo not given), the Activity in data set [2] worked out at 96.05%; in data set [6] it was 85.25%; in data set [7] it was 60%; in data set [4] (route intraperitoneal), 2.51. The ED50 in data set [3] (route intraperitoneal) amounted to 10 mg/kg. In addition, the inhibition in vivo at 25 mg/kg in data set [8] turned out to be 80.7%. The inhibition in vivo at 50 mg/kg in data set [5] was determined as 94.6%. The molecule also displayed a median lethal dose (LD50) in data set [1] of 1.75 mg/kg.
For `CC1=CC(c2ccccc2)NC(=S)N1` (stereo not given), the Activity in data set [2] is reported as 96.1%; in data set [6], 84.52%; in data set [7] it was 130%; in data set [4] (route intraperitoneal), 1. For the same molecule, the 50% effective dose (ED50) in data set [3] (route intraperitoneal) was determined as 32 mg/kg. Also, the inhibition in vivo at 25 mg/kg in data set [8] amounted to 78.4%. Further, the inhibition in vivo at 50 mg/kg in data set [5] turned out to be 93.5%. The molecule also came in with a 50% lethal dose (LD50) in data set [1] of 1.8 mg/kg.
As for `CC1=Cc2c(c(=O)[nH]n2-c2ccccc2)C(c2ccccc2)C1` (stereo not given), the Activity in data set [2] is listed as 64.8%; in data set [6] it was 63.9%; in data set [7], 60%. Moreover, the ED50 entry in data set [3] was “inactive”. For the same molecule, the result in data set [4] was inactive. Besides, in data set [8], the inhibition in vivo at 25 mg/kg came to 54.9%. Further, in data set [5], the inhibition in vivo at 50 mg/kg came out at 67%. In data set [1], this molecule had an LD50 of 1.86 mg/kg.
`CC1=CC(c2ccccc2)NC(=S)N1CN1CCOCC1` (stereo not given): the Activity in data set [2] is 98.41%; in data set [6], 85.84%; in data set [7], 60%; in data set [4] (route intraperitoneal), 2.3. Moreover, in data set [3] (route intraperitoneal), the ED50 turned out to be 13 mg/kg. Also, the inhibition in vivo at 25 mg/kg in data set [8] came to 90.3%. Moreover, the LD50 in data set [1] came to 1.69 mg/kg.
On to `CC1=CC(c2ccccc2)N=C(n2cc(C)c(C)n2)N1` (stereo not given), for which the 50% lethal dose (LD50) in data set [1] was found to be 1.79 mg/kg.
Turning to `CC1=CC2=NC(=S)NC(=O)C2C(c2ccccc2)C1` (stereo not given), the Activity in data set [2] is recorded as 85.24%; in data set [6], 74.38%; in data set [7], 130%; in data set [4] (route intraperitoneal), 2.04. Also, the ED50 in data set [3] (route intraperitoneal) was found to be 15 mg/kg. Besides, in data set [8], the inhibition in vivo at 25 mg/kg was determined as 72.1%. In addition, the inhibition in vivo at 50 mg/kg in data set [5] amounted to 82.8%. Moreover, the 50% lethal dose (LD50) in data set [1] came to 1.88 mg/kg.
`CC1=CC(c2ccccc2)NC(NN)N1` (stereo not given) returned a median lethal dose (LD50) in data set [1] of 1.88 mg/kg.
Regarding `CC1=CC(c2ccccc2)N=C(NN2C(=O)c3ccc4c5c(ccc(c35)C2=O)C(=O)N(NC2=NC(c3ccccc3)C=C(C)N2)C4=O)N1` (stereo not given), the Activity was determined as 51.6% in data set [2], 48.5% in data set [6], 60% in data set [7] and 1.8 in data set [4] (route intraperitoneal). Also, in data set [3] (route intraperitoneal), the ED50 is 15 mg/kg. For the same molecule, the inhibition in vivo at 25 mg/kg in data set [8] turned out to be 58.8%. Moreover, the inhibition in vivo at 50 mg/kg in data set [5] came to 65%. Besides, the LD50 in data set [1] was determined as 1.78 mg/kg.
As to `CCOC(=O)C1C(=O)C=C(C)CC1c1ccccc1` (stereo not given), the results for the Activity in data set [2], in data set [7] and in data set [4] (route intraperitoneal) were 60.26%, 60% and 0.68, respectively. For the same molecule, the 50% effective dose (ED50) in data set [3] (route intraperitoneal) was determined as 50 mg/kg. Further, the inhibition in vivo at 50 mg/kg in data set [5] is 54.5%. The 50% lethal dose (LD50) in data set [1] stood at 1.74 mg/kg.
For `CC(=O)C1C(=O)C=C(C)CC1c1ccccc1` (stereo not given), the 50% lethal dose (LD50) in data set [1] is 1.72 mg/kg.
For the molecule `CC1=Cc2[nH]c(=S)nc(C)c2C(c2ccccc2)C1` (stereo not given), in data set [7], the Activity came to 60%. Moreover, the LD50 in data set [1] amounted to 1.87 mg/kg.
Regarding `NC(=O)N1c2ccccc2C=Cc2ccccc21` [CARBAMAZEPINE], in data set [3] (route intraperitoneal), the median effective dose (ED50) turned out to be 28 mg/kg.
Consider `C[C@]12C=CC(=O)C=C1CC[C@@H]1[C@@H]2[C@@H](O)C[C@@]2(C)[C@H]1CC[C@]2(O)C(=O)CO` [PREDNISOLONE], for which the Activity in data set [2] is 92%; in data set [6], 81%. In addition, the inhibition in vivo at 25 mg/kg in data set [8] turned out to be 77%. In addition, the inhibition in vivo at 50 mg/kg in data set [5] came out at 91%. Besides, in data set [1], the median lethal dose (LD50) came out at 1.62 mg/kg.
Regarding `CC1=CC(c2ccccc2)N=C(Nn2c(=O)c3cc4c(=O)n(NC5=NC(c6ccccc6)C=C(C)N5)c(=O)c4cc3c2=O)N1` (stereo not given), in data set [1], the LD50 stood at 1.68 mg/kg.
